# From US20140005163A1 (NOVARTIS AG, priority 2010, published 2014)
# Legend:
# PI3K delta = molecular target: T1, PI3K delta (Homo sapiens, UniProt O00329); assay: PI3K delta kinase assay (Kinase-Glo luminescence); format: biochemical
# T1 construct: for the full-length p110-d subunit are generated and fused by overlapping PCR; p85(iSH2) fusion partner (see partner chain) (N); His tag (C); made in house; host or cells: baculovirus; Tn5 (Trichoplusia ni) or TiniPro insect cells
# How it was run: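 Inhibition is derived from luminescent detection of unconsumed ATP. The reaction runs for one hour at ambient temperature and contains the δ isoform fusion protein, phosphatidylinositol substrate and low (1 μM) ATP. Eight compound concentrations are tested in single, and a 4-parameter logistic model is used to calculate IC50.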
# [1] = system: PKB Ser473 phosphorylation in Rat1-myr-HA-p110 alpha cells; assay: Reverse protein array assay, PKB Ser473 phosphorylation in Rat1-myr-p110 alpha cells; format: cell-based; details: 0.5 h, pAkt Ser473, 30 minutes compound incubation, read-out: p-PKB IC50
# How it was run: (§1)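 Lysates were arrayed at four dilutions, and phospho-PKB Ser473 was quantified by relative fluorescence signal. They came from Rat1-myr-HA-p110 alpha, beta or delta cells exposed for 30 min at 37 °C to an 8-point compound series with 0.2% DMSO constant.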
# [2] = system: PKB Ser473 phosphorylation in Rat1-myr-HA-p110 beta cells; assay: Reverse protein array assay, PKB Ser473 phosphorylation in Rat1-myr-p110 beta cells; format: cell-based; details: 0.5 h, pAkt Ser473, 30 minutes incubation, read-out: p-PKB IC50
# How it was run: as §1
# [3] = system: S6 Ribosomal Protein phosphorylation Ser235/236 in TSC1 null mouse embryo fibroblast (MEF) cells; assay: Reverse protein array assay, S6 Ribosomal Protein phosphorylation Ser235/236 in TSC1 null MEF cells; format: cell-based; details: 1 h, pS6 ribosomal protein Ser235/236, 60 minutes incubation, read-out: p-S6 IC50
# How it was run: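 TSC1−/− MEFs, seeded and held ≥20 h at 37 °C/5% CO2, were exposed to 8-step serial compound dilutions (0.02% DMSO final; DMSO vehicle control) for 60 min at 37 °C. Cells were then lysed on ice for 10 min and lysates spotted onto reverse protein array chips.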
# T1 sequence (O00329 with tags, fused parts or gaps limits assumed): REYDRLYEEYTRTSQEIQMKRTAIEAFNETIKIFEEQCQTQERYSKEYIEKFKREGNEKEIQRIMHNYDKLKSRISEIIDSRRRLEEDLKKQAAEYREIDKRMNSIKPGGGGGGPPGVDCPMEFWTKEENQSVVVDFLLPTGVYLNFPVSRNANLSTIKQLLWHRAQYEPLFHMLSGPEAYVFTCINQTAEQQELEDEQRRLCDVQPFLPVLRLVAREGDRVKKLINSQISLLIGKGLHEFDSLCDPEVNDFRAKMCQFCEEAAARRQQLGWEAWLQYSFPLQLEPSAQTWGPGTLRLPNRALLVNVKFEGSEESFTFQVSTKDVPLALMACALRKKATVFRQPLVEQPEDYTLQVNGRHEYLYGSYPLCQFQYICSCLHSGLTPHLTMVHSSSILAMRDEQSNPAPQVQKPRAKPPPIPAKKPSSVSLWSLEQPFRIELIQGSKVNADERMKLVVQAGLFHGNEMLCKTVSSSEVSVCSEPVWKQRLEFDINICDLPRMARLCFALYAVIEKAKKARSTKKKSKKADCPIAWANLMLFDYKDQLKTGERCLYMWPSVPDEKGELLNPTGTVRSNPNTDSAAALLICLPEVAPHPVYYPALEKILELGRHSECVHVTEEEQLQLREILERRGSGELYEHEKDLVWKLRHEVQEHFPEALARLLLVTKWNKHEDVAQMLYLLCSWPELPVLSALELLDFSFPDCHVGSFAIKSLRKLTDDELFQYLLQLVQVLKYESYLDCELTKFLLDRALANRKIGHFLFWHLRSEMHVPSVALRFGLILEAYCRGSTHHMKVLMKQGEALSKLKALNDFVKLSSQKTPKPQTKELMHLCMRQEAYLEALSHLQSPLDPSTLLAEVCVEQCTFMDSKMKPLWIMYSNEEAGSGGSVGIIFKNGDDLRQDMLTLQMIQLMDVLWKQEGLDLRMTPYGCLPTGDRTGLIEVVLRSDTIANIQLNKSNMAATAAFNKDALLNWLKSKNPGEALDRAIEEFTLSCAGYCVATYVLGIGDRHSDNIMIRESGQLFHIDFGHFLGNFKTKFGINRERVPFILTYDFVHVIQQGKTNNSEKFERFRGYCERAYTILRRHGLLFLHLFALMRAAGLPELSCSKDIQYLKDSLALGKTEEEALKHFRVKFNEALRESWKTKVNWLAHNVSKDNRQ
Compound,IC50 (PI3K delta) [nM],IC50 [1] [nM],IC50 [2] [nM],IC50 [3] [nM]
"COc1ccc(-c2ccc3ncc4c(c3c2)n(-c2cc(C)nn2C)c(=O)n4C)cc1OC [Example 1.4, 8-(3,4-Dimethoxy-phenyl)-1-(2,5-dimethyl-2H-pyrazol-3-yl)-3-methyl-1,3-dihydro-imidazo[4,5-c]quinolin-2-one]",83,22,157,–
"COc1ccc(-c2ccc3ncc4c(c3c2)n(-c2cn(C(C)C)nc2C)c(=O)n4C)cc1OC [Example 1.5, 8-(3,4-Dimethoxy-phenyl)-1-(1-isopropyl-3-methyl-1H-pyrazol-4-yl)-3-methyl-1,3-dihydro-imidazo[4,5-c]quinolin-2-one]",7,16,23,< 5
"CCn1cc(-n2c(=O)n(C)c3cnc4ccc(-c5ccc(OC)c(OC)c5)cc4c32)c(C)n1 [Example 1.6, 8-(3,4-Dimethoxy-phenyl)-1-(1-ethyl-3-methyl-1H-pyrazol-4-yl)-3-methyl-1,3-dihydro-imidazo[4,5-c]quinolin-2-one]",11,10,22,< 5
"COc1ccc(-c2ccc3ncc4c(c3c2)n(-c2cn(C)nc2C)c(=O)n4C)cn1 [Example 2.5, 1-(1,3-Dimethyl-1H-pyrazol-4-yl)-8-(6-methoxy-pyridin-3-yl)-3-methyl-1,3-dihydro-imidazo[4,5-c]quinolin-2-one]",10,18,18,10
"CCn1cc(-n2c(=O)n(C)c3cnc4ccc(-c5ccc(OC)nc5)cc4c32)c(C)n1 [Example 2.7, 1-(1-Ethyl-3-methyl-1H-pyrazol-4-yl)-8-(6-methoxy-pyridin-3-yl)-3-methyl-1,3-dihydro-imidazo[4,5-c]quinolin-2-one]",19,28,38,6
"CCOc1ccc(-c2ccc3ncc4c(c3c2)n(-c2c(C)nn(C)c2C)c(=O)n4C)cn1 [Example 3.3, 8-(6-Ethoxy-pyridin-3-yl)-3-methyl-1-(1,3,5-trimethyl-1H-pyrazol-4-yl)-1,3-dihydro-imidazo[4,5-c]quinolin-2-one]",148,50,548,255
"CCOc1ccc(-c2ccc3ncc4c(c3c2)n(-c2cn(C(C)C)nc2C)c(=O)n4C)cn1 [Example 3.7, 8-(6-Ethoxy-pyridin-3-yl)-1-(1-isopropyl-3-methyl-1H-pyrazol-4-yl)-3-methyl-1,3-dihydro-imidazo[4,5-c]quinolin-2-one]",43,43,51,30
"CCOc1ccc(-c2ccc3ncc4c(c3c2)n(-c2cn(CC(=O)N(C)C)nc2C)c(=O)n4C)cn1 [Example 3.9, 2-{4-[8-(6-Ethoxy-pyridin-3-yl)-3-methyl-2-oxo-2,3-dihydro-imidazo[4,5-c]quinolin-1-yl]-3-methyl-pyrazol-1-yl}-N,N-dimethyl-acetamide]",112,10,19,5
"Cc1nn(C)cc1-n1c(=O)n(C)c2cnc3ccc(-c4ccc(N(C)C)nc4)cc3c21 [Example 4.5, 8-(6-Dimethylamino-pyridin-3-yl)-1-(1,3-dimethyl-1H-pyrazol-4-yl)-3-methyl-1,3-dihydro-imidazo[4,5-c]quinolin-2-one]",17,22,17,13
"Cc1cc(-n2c(=O)n(C)c3cnc4ccc(-c5ccc(N(C)C)nc5)cc4c32)n(C)n1 [Example 4.6, 8-(6-Dimethylamino-pyridin-3-yl)-1-(2,5-dimethyl-2H-pyrazol-3-yl)-3-methyl-1,3-dihydro-imidazo[4,5-c]quinolin-2-one]",91,30,72,–
"Cc1nn(C)cc1-n1c(=O)n(C)c2cnc3ccc(-c4ccc(N5CCC5)nc4)cc3c21 [Example 5.1, 8-(6-Azetidin-1-yl-pyridin-3-yl)-1-(1,3-dimethyl-1H-pyrazol-4-yl)-3-methyl-1,3-dihydro-imidazo[4,5-c]quinolin-2-one]",144,7,8,10
"Cc1nn(C)cc1-n1c(=O)n(C)c2cnc3ccc(-c4ccc(C(N)=O)nc4)cc3c21 [Example 14, 5-[1-(1,3-Dimethyl-1H-pyrazol-4-yl)-3-methyl-2-oxo-2,3-dihydro-1H-imidazo[4,5-c]quinolin-8-yl]-pyridine-2-carboxylic acid amide]",34,26,18,123
"CNC(=O)c1ccc(-c2ccc3ncc4c(c3c2)n(-c2c(C)nn(C)c2C)c(=O)n4C)cn1 [Example 15.2, 5-[3-Methyl-2-oxo-1-(1,3,5-trimethyl-1H-pyrazo1-4-yl)-2,3-dihydro-1H-imidazo[4,5-c]quinolin-8-yl]-pyridine-2-carboxylic acid methylamide]",821,352,530,–
"Cc1nn(C)c(C)c1-n1c(=O)n(C)c2cnc3ccc(-c4ccc(CO)nc4)cc3c21 [Example 16.4, 8-(6-Hydroxymethyl-pyridin-3-yl)-3-methyl-1-(1,3,5-trimethyl-1H-pyrazol-4-yl)-1,3-dihydro-imidazo[4,5-c]quinolin-2-one]",161,234,–,–
"Cn1cc(-n2c(=O)n(C)c3cnc4ccc(-c5ccc(CO)nc5)cc4c32)c(Cl)n1 [Example 16.5, 1-(3-chloro-1-methyl-1H-pyrazol-4-yl)-8-(6-hydroxymethyl-pyridin-3-yl)-3-methyl-1,3-dihydro-imidazo[4,5-c]quinolin-2-one]",3,8,10,13
"Cn1nccc1-n1c(=O)n(C)c2cnc3ccc(-c4ccc(NCCO)nc4)cc3c21 [Example 21.1, 8-[6-(2-Hydroxy-ethylamino)-pyridin-3-yl]-3-methyl-1-(2-methyl-2H-pyrazol-3-yl)-1,3-dihydro-imidazo[4,5-c]quinolin-2-one]",116,191,173,–
"Cc1cncc(-c2ccc3ncc4c(c3c2)n(-c2cn(C)nc2C)c(=O)n4C)c1 [Example 24, 1-(1,3-Dimethyl-1H-pyrazol-4-yl)-3-methyl-8-(5-methyl-pyridin-3-yl)-1,3-dihydro-imidazo[4,5-c]quinolin-2-one]",41,78,124,9
"CCOc1ccc(-c2ccc3ncc4c(c3c2)n(-c2c(C)nn(C)c2C)c(=O)n4C)cc1OCC [Example 27.2, 8-(3,4-Diethoxy-phenyl)-3-methyl-1-(1,3,5-trimethyl-1H-pyrazol-4-yl)-1,3-dihydro-imidazo[4,5-c]quinolin-2-one]",50,14,389,234
"CCOc1ccc(-c2ccc3ncc4c(c3c2)n(-c2cn(CC)nc2C)c(=O)n4C)cc1OC [Example 29.1, 8-(4-Ethoxy-3-methoxy-phenyl)-1-(1-ethyl-3-methyl-1H-pyrazol-4-yl)-3-methyl-1,3-dihydro-imidazo[4,5-c]quinolin-2-one]",27,5,93,9
"Cc1nn(C)cc1-n1c(=O)n(C)c2cnc3ccc(-c4cnc5ccccc5c4)cc3c21 [Example 38, 1-(1,3-Dimethyl-1H-pyrazol-4-yl)-3-methyl-8-quinolin-3-yl-1,3-dihydro-imidazo[4,5-c]quinolin-2-one]",7,7,9,3
"Cc1nn(C)cc1-n1c(=O)n(C)c2cnc3ccc(-c4cccc(S(=O)(=O)N5CCCC5)c4)cc3c21 [Example 44, 1-(1,3-Dimethyl-1H-pyrazol-4-yl)-3-methyl-8-[3-(pyrrolidine-1-sulfonyl)-phenyl]-1,3-dihydro-imidazo[4,5-c]quinolin-2-one]",28,41,42,80
"COCc1ccc(-c2ccc3ncc4c(c3c2)n(-c2cn(C(C)C)nc2C)c(=O)n4C)cn1 [Example 105, 1-(1-Isopropyl-3-methyl-1H-pyrazol-4-yl)-8-(6-methoxymethyl-pyridin-3-yl)-3-methyl-1,3-dihydro-imidazo[4,5-c]quinolin-2-one]",52,77,41,–
"Cc1nn(C)c(C)c1-n1c(=O)n(C)c2cnc3ccc(-c4cnc(N)c(CO)c4)cc3c21 [Example 169.2, 8-(6-Amino-5-hydroxymethyl-pyridin-3-yl)-3-methyl-1-(1,3,5-trimethyl-1H-pyrazol-4-yl)-1,3-dihydro-imidazo[4,5-c]quinolin-2-one]",27,460,586,–
